Measurements reported in US9434724B2, “Quinuclidines for modulating alpha 7 activity” (priority 2014, dated 2016).
Structures can show the parent of a compound that is named as a salt. Where two headings read alike, the source gives them in different places.

Columns and labels:
[1] = Metabolic stability assay in human liver microsomes (HLM); assay type: in vitro ADME; details: 1 μM
Procedure: (§1) Protocol 1: Studies were carried out in human and rat liver microsomes (“HLM” and “RLM,” respectively). Human and rat liver microsomes were purchased from BD Gentest. DMSO stocks were prepared for the test compounds. Aliquots of the DMSO solutions were diluted to 0.5 mM by acetonitrile, then further diluted by liver microsomes/buffer to 1.5 μM. 30 μL of 1.5 μM solutions were mixed with 15 μL of 6 mM NADPH, which had been pre-warmed to 37° C., at a final test compound concentration of 1 μM. The plates were kept in a 37° C. water bath for the duration of the experiment. At each time point (0, 5, 15, 30, 45 minutes), 135 μL of acetonitrile was added into corresponding wells. After the final time point was sampled, the plates were shaken at a vibrator (IKA, MTS 2/4) for 10 min (600 rpm/min) and then centrifuged at 5594 g for 15 min (Thermo Multifuge×3R). Aliquots of the supernatant were removed, diluted 1:1 into distilled water, and analyzed by LC-MS/MS. The peak area response ratio to internal standard (PARR) of the compounds at 5, 15, 30, 45 minutes was compared to the PARR at time 0 to determine the percent of test compound remaining at each time point. Half-lives were calculated using Excel software, fitting to a single-phase exponential decay equation.
(§2) Protocol 2: Studies were carried out in human and rat liver microsomes. Buffer solutions were prepared as follows: Buffer A: 1.0 L of 0.1 M monobasic Potassium Phosphate buffer containing 1.0 mM EDTA; Buffer B: 1.0 L of 0.1 M Dibasic Potassium Phosphate buffer containing 1.0 mM EDTA; Buffer C: 0.1 M Potassium Phosphate buffer, 1.0 mM EDTA, pH 7.4 by titrating 700 mL of buffer B with buffer A while monitoring with a pH meter.
(§3) Reference compound (Ketanserin) and test compound spiking solutions were prepared as follows: 500 μM spiking solution: add 10 μL of 10 mM DMSO stock solution into 190 μL ACN; 1.5 μM spiking solution in microsomes (0.75 mg/mL): add 1.5 μL of 500 μM spiking solution and 18.75 μL of 20 mg/mL liver microsomes into 479.75 μL of Buffer C.
(§4) NADPH stock solution (6 mM) was prepared by dissolving NADPH into buffer C.
(§5) Assay procedure: 30 μL of 1.5 μM spiking solution containing 0.75 mg/mL microsomes solution was dispensed to the wells designated for […]. The plate was pre-incubated at 37° C. for 10 minutes. 15 μL of NADPH stock solution (6 mM) was added to the wells designated as Time 45, and the timer was started. At 30 mM, 15 mM, and 5 mM, 15 μL NADPH stock solution (6 mM) was added to the wells, respectively. At the end of incubation (0 mM), 135 μL of ACN containing IS was added to all the wells. Then 15 μL of NADPH stock solution (6 mM) was added to the wells designated as Time 0. After quenching, the reaction mixtures were centrifuged at 3220 g for […]. Following centrifugation, 50 μL of the supernatant was transferred from each well into a 96-well sample plate containing 50 μL of ultra-pure water (Millipore) for LC/MS analysis. The peak area response (PARR) ratio to internal standard of the compounds at 5, 15, 30, and 45 minutes was compared to the PARR at time 0 to determine the percent of test compound remaining at each time point. Half-lives were calculated using Excel software, fitting to a single-phase exponential decay equation.

Human plasma stability = assay type: in vitro ADME; details: plasma; for % Remaining @ 2 h: 5 μM
Procedure: Protocol 1: Studies were carried out in human plasma. All plasma was obtained from Bioreclamation and collected on sodium heparin. Plasma was adjusted to pH 7.4. A DMSO stock was first prepared for the test compound. An aliquot of the DMSO solution was dosed into 1 mL of plasma, which had been pre-warmed to 37° C., at a final test compound concentration of 1 μM. The vials were kept in a benchtop Thermomixer® for the duration of the experiment. Aliquots (100 μL) were taken at each time point (0, 15, 30, 60, and 120 minutes) and added to 96-well plates which had been pre-filled with 300 μL of acetonitrile. Samples were stored at 4° C. until the end of the experiment. After the final time point was sampled, the plate was mixed and then centrifuged at 3,000 rpm for 10 minutes. Aliquots of the supernatant were removed, diluted 1:1 into distilled water, and analyzed by LC-MS/MS. The peak area response ratio to internal standard (PARR) of the compound at 15, 30, 60 and 120 minutes was compared to the PARR at time 0 to determine the percent of test compound remaining at each time point. Half-lives were calculated using GraphPad software, fitting to a single-phase exponential decay equation.
Protocol 2: Studies were carried out in plasma. Plasma was prepared under approval of IRB and IACUC on sodium heparin. The pH of plasma was monitored and used within the range of pH 7.4 to pH 8.0. DMSO stocks were prepared for the test compounds. Aliquots of the DMSO solutions were diluted to 0.05 mM by 0.05 mM Sodium phosphate buffer with 0.5% BSA. Then 10 μL of 0.05 mM solutions were dosed into 90 μL of plasma in duplicates (n=2), which had been pre-warmed to 37° C., at a final test compound concentration of 5 μM. The plates were kept in a 37° C. water bath for the duration of the experiment. At each time point (0, 5, 15, 30, 45, 60, and 120 minutes), 400 μL of acetonitrile was added into corresponding wells. After the final time point was sampled, the plates were shaken at the vibrator (IKA, MTS 2/4) for 10 min (600 rpm/min) and then centrifuged at 5594 g for 15 min (Thermo Multifuge×3R). Aliquots of the supernatant were removed, diluted 1:1 into distilled water, and analyzed by LC-MS/MS. The peak area response ratio to internal standard (PARR) of the compounds at 5, 15, 30, 45, 60, and 120 minutes was compared to the PARR at time 0 to determine the percent of test compound remaining at each time point. Half-lives were calculated using Excel software, fitting to a single-phase exponential decay equation.

[2] = target: T1, rat brain nicotinic receptor (α7 NAChR) (Rattus norvegicus (Rat), UniProt Q05941); assay type: binding; details: Protocol No. 2; [3H] α-Bungarotoxin 0.4 nM, rat brain P2 membrane
T1 sequence (Q05941 23-502 limits assumed): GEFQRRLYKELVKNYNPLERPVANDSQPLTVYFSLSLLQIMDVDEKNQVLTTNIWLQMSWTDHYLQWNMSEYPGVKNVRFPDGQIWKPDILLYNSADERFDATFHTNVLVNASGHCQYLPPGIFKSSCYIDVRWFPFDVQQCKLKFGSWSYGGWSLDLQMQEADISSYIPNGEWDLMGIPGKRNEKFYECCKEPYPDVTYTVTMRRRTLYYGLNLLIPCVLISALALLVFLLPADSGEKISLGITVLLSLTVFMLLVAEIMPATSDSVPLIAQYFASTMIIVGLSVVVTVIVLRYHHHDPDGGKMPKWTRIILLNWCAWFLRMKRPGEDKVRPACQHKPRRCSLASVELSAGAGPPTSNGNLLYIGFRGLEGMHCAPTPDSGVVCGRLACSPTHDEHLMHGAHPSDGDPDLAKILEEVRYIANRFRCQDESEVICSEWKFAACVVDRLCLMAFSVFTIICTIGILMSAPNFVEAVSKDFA

[3] = Metabolic stability assay in rat liver microsomes (RLM); assay type: in vitro ADME; details: 1 μM
Procedure: as §1, §2, §3, §4, §5

CYP1A2 = CYP1A2 (Homo sapiens (Human), UniProt P05177); experiment: Cytochrome P450 inhibition in human liver microsomes, CYP1A2
Sequence of CYP1A2 (P05177 whole entry): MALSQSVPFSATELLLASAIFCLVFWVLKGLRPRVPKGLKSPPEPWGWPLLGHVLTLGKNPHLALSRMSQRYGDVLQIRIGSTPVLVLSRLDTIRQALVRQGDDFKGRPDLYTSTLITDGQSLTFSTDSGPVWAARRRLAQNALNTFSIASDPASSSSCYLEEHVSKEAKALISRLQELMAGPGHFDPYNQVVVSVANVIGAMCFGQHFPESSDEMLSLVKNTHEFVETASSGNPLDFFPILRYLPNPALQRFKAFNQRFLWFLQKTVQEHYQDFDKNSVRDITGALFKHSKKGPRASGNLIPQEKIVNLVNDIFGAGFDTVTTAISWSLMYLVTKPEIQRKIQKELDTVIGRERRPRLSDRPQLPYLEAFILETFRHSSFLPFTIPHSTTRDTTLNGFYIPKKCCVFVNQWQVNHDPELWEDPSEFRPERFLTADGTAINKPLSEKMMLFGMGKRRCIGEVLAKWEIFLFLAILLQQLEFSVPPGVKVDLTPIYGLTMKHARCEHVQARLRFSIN

CYP2C19 [4] = target: T2, CYP2C19 (Homo sapiens (Human), UniProt P33261); details: microsomes
T2 sequence (P33261 whole entry): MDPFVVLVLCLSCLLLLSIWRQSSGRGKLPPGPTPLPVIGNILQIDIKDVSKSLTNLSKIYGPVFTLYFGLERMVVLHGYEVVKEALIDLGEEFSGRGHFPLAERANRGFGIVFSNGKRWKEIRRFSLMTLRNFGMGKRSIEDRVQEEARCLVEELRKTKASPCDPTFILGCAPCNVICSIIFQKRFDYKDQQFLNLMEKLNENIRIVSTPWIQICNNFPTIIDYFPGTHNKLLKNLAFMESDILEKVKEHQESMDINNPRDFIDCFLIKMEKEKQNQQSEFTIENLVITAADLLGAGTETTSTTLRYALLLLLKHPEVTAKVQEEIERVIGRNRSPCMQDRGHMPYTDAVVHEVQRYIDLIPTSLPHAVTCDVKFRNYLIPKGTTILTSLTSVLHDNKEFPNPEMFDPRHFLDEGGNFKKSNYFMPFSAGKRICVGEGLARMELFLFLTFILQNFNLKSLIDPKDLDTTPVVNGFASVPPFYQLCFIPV

[5] = target: T1, rat brain nicotinic receptor (α7 NAChR); assay type: binding
CYP2C9 = CYP2C9 (Homo sapiens (Human), UniProt P11712); experiment: Cytochrome P450 inhibition in human liver microsomes, CYP2C9; details: read-out: 2C9 IC50, Protocol 1
Sequence of CYP2C9 (P11712 whole entry): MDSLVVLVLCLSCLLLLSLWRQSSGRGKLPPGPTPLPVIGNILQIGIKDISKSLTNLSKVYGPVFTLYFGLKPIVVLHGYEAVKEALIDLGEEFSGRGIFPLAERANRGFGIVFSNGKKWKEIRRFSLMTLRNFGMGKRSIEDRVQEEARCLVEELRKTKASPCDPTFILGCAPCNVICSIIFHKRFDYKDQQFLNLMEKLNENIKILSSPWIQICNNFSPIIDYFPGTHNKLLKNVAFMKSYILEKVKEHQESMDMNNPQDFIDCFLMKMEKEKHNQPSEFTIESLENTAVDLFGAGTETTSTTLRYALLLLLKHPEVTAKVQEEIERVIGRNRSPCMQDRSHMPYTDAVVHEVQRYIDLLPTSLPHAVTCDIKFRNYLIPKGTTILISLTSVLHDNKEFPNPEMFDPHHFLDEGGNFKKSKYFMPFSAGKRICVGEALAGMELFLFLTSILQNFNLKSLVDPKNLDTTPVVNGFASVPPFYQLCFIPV

CYP2C19 [6] = target: T2, CYP2C19; experiment: Cytochrome P450 inhibition in human liver microsomes, CYP2C19; details: read-out: 2C19 IC50, Protocol 1
CYP3A4 = CYP3A4 (Homo sapiens (Human), UniProt P08684); experiment: Cytochrome P450 inhibition in human liver microsomes, CYP3A4
Sequence of CYP3A4 (P08684 whole entry): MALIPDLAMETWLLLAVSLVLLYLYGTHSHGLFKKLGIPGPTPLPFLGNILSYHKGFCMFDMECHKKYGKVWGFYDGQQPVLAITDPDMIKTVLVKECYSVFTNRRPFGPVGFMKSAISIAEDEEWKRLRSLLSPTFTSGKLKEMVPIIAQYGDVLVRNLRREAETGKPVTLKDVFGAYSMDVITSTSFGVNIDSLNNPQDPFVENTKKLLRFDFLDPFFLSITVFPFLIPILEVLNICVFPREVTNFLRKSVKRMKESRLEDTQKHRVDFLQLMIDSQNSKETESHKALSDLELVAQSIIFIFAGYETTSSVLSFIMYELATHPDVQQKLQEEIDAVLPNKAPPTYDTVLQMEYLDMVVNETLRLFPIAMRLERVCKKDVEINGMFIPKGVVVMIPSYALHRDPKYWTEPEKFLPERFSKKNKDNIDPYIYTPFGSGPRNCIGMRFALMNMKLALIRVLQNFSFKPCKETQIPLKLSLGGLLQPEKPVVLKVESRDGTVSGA

[7] = Protocol No. 1, human liver microsomes
[8] = Protocol No. 1, rat liver microsomes
[9] = read-out: 3A4 IC50 (Midazolam), substrate midazolam, Protocol 1
[10] = read-out: 3A4 IC50 (Testosterone), substrate testosterone, Protocol 1

Row | SMILES | HLM ([1]; human, microsomes) [L/h/kg] | % Remaining @ 2 h (Human plasma stability; human, 2 h) [%] | IC50 [2] [µM] | Ki [2] [µM] | RLM ([3]; rat, microsomes) [L/h/kg] | IC50 [5] [µM] | Ki [5] [µM] | further results
1 | Cc1c(OCCO)ccc2[nH]cc(C(=O)OCC34CCN(CC3)CC4)c12 [Compound 95, quinuclidin-4-ylmethyl 5-(2-hydroxyethoxy)-4-methyl-1H-indole-3-carboxylate, 2,2,2-trifluoroacetate salt] | 0.172 | 73.17 | 0.213 | 0.414 | 1.065 | – | – | –
2 | Cc1c(OCC(F)(F)F)ccc2[nH]cc(C(=O)OCC34CCN(CC3)CC4)c12 [Compound 94, quinuclidin-4-ylmethyl 4-methyl-5-(2,2,2-trifluoroethoxy)-1H-indole-3-carboxylate] | 0.157 | 76.38 | 0.162 | 0.23 | 1.591 | – | – | –
3 | COc1cc2[nH]cc(C(=O)OCC34CCN(CC3)CC4)c2cc1OC [Compound 87, quinuclidin-4-ylmethyl 5,6-dimethoxy-1H-indole-3-carboxylate] | – | – | 1.56 | 2.71 | – | – | – | HLM [1, 7]: 0.03 L/h/kg; % Remaining @ 2 h (Human plasma stability; Protocol No. 2, 37° C.): 55.42%; RLM [3, 8]: 15.463 L/h/kg
4 | Cc1cc2c(C(=O)OCC34CCN(CC3)CC4)c[nH]c2cc1C#N [Compound 84, quinuclidin-4-ylmethyl 6-cyano-5-methyl-1H-indole-3-carboxylate] | – | – | 3.34 | 7.18 | – | – | – | HLM [1, 7]: 0.6144 L/h/kg; % Remaining @ 2 h (Human plasma stability; Protocol No. 2, 37° C.): 59.79%; RLM [3, 8]: 6.9726 L/h/kg
5 | CC(=O)Nc1cc(C)c2c(C(=O)OCC34CCN(CC3)CC4)c[nH]c2c1 [Compound 93, quinuclidin-4-ylmethyl 6-acetamido-4-methyl-1H-indole-3-carboxylate] | 0.7776 | 81.38 | 1.31 | 2.87 | 0.7596 | – | – | –
6 | Cl.O=C(OCC12CCN(CC1)CC2)c1c[nH]c2cc(C(F)(F)F)ccc12 [Compound 90, quinuclidin-4-ylmethyl 6-(trifluoromethyl)-1H-indole-3-carboxylate] | – | – | > 3 | > 3 | – | – | – | HLM [1, 7]: 0.313 L/h/kg; % Remaining @ 2 h (Human plasma stability; Protocol No. 2, 37° C.): 63.18%; RLM [3, 8]: 4.333 L/h/kg
7 | O=C(OCC12CCN(CC1)CC2)c1c[nH]c2ccc(Cl)cc12 [Compound 2, quinuclidin-4-ylmethyl 5-chloro-1H-indole-3-carboxylate] | – | – | – | – | – | 0.328 | 0.287 | IC50 (CYP1A2; read-out: 1A2 IC50, Protocol 2): > 10 µM; HLM ([1]; human, microsomes, pH 7.4): <0.81648 L/h/kg; IC50 (CYP2C19 [4]): > 10 µM; RLM ([3]; rat, microsomes, pH 7.4): 7.6464 L/h/kg
8 | Cc1cc(F)cc2[nH]cc(C(=O)OCC34CCN(CC3)CC4)c12 [Compound 44, quinuclidin-4-ylmethyl 6-fluoro-4-methyl-1H-indole-3-carboxylate] | 0.21 | 95.72 | – | – | 31.881 | 0.48 | 0.412 | IC50 (CYP1A2; read-out: 1A2 IC50, Protocol 1): > 10 µM; IC50 (CYP2C9): > 10 µM; IC50 (CYP2C19 [6]): > 10 µM; IC50 (CYP3A4; [9]): > 10 µM; IC50 (CYP3A4; [10]): > 10 µM; T1/2 (Human plasma stability; human): ∞
9 | COc1cc(C)cc2[nH]cc(C(=O)OCC34CCN(CC3)CC4)c12 [Compound 85, quinuclidin-4-ylmethyl 4-methoxy-6-methyl-1H-indole-3-carboxylate] | 0.491 | 27.28 | 0.18 | 0.357 | 3.58 | – | – | –
10 | O=C(OCC12CCN(CC1)CC2)c1c[nH]c2ccc(Cl)cc12 [Compound 27, quinuclidin-4-ylmethyl 5-chloro-1H-indole-3-carboxylate] | – | – | – | – | – | 0.282 | 0.247 | IC50 (CYP1A2; read-out: 1A2 IC50, Protocol 2): > 10 µM; HLM ([1]; human, microsomes, pH 7.4): <0.81648 L/h/kg; IC50 (CYP2C19 [4]): > 10 µM; RLM ([3]; rat, microsomes, pH 7.4): 6.38574 L/h/kg
11 | Cc1c(F)ccc2[nH]cc(C(=O)OCC34CCN(CC3)CC4)c12 [Compound 43, quinuclidin-4-ylmethyl 5-fluoro-4-methyl-1H-indole-3-carboxylate] | 0.334 | 112.99 | – | – | 28.142 | 0.207 | 0.177 | IC50 (CYP1A2; read-out: 1A2 IC50, Protocol 1): > 10 µM; IC50 (CYP2C9): > 10 µM; IC50 (CYP2C19 [6]): > 10 µM; IC50 (CYP3A4; [9]): > 10 µM; IC50 (CYP3A4; [10]): > 10 µM; T1/2 (Human plasma stability; human): ∞
12 | Cc1cc(OC(=O)C(C)(C)C)cc2[nH]cc(C(=O)OCC34CCN(CC3)CC4)c12 [Compound 89, quinuclidin-4-ylmethyl 4-methyl-6-(pivaloyloxy)-1H-indole-3-carboxylate] | 20.86 | 77.23 | 1.07 | 2.13 | 69.249 | – | – | –
